# Laboratory results reported in patent US20080069814A1, “Prevention of Thrombotic Disorders with Active Vitamin D Compounds or Mimics Thereof” (Novacea, Inc., priority 2005, published 2008).
# What was measured:
# [1] = tested on: patients with prostate cancer; assay: Phase II clinical trial: Taxotere with or without calcitriol by HDPA, cardiovascular events; type: in vivo, human; details: 125 patients per arm; calcitriol three 15 μg capsules once a week on the day prior to Taxotere 75 mg/m^2
# From the text: Two hundred fifty patients with prostate cancer were enrolled at 58 centers in the United States and Canada. All patients in the study received chemotherapy treatment with Taxotere®, a drug in the taxoid class of chemotherapeutic agents. […] Oral dexamethasone is also given along with the Taxotere® to minimize certain side effects (allergic reactions and fluid retention) associated with Taxotere®.
# In addition to Taxotere® and dexamethasone, half of the patients were randomly treated with calcitriol and the other half received a placebo. Calcitriol was administered as three capsules of 15 μg each once a week on the day prior to chemotherapy. […] The same Taxotere® doses of 75 mg/m^2 body surface area were administered to the patients receiving Taxotere® alone or Taxotere® in combination with calcitriol.
# [2] = tested on: TF; details: in vitro, cultured monocytic cells including human peripheral monocytes; cited from earlier work
# [3] = tested on: thrombomodulin (“TM”); details: in vitro, cultured monocytic cells including human peripheral monocytes; cited from earlier work
# [4] = tested on: women with metastatic breast cancer; details: cited from earlier work
# [5] = tested on: patients suffering from non-small-cell carcinoma of the lung; details: in vivo, sc; cited from earlier work
# [6] = tested on: venous thromboembolism (VTE); details: in vivo; cited from earlier work
# [7] = tested on: patients receiving heparin; details: cited from earlier work
molecule,measurement,setting,value
CC(=O)O[C@@]12CO[C@@H]1C[C@H](O)[C@@]1(C)C(=O)[C@H](O)C3=C(C)[C@@H](OC(=O)[C@H](O)[C@@H](NC(=O)OC(C)(C)C)c4ccccc4)C[C@@](O)([C@@H](OC(=O)c4ccccc4)[C@H]21)C3(C)C [Taxotere®],Patients who developed deep vein thrombosis or thrombophlebits,[1],six of 125
same,Patients who developed myocardial infractions or myocardial ischemia,[1],two of 125
same,Patients who had a stroke (cerebrovascular events),[1],two of 125
"C=C1/C(=C\C=C2/CCC[C@]3(C)[C@@H]([C@H](C)CCCC(C)(C)O)CC[C@@H]23)C[C@@H](O)C[C@@H]1O [calcitriol, 1α,25-dihydroxyvitamin D3]",Expression of TF,[2],down-regulating the expression
same,Expression of the anticoagulant thrombomodulin,[3],up-regulating the expression
"epoetin alfa: erythropoiesis-stimulating agent, FDA-approved drug EPOGEN",Kaplan-Meier estimated 12-month survival rate,[4]; in vivo,70%
same,Mortality at 4 months,"[4]; weekly epoetin alfa for up to a year, interim results",8.7%
same,Rate of fatal thrombotic events,"[4]; weekly epoetin alfa, interim results",1.1%
same,Median survival versus placebo,[5],significant difference in the median survival in favor of patients on the placebo arm
erythropoietin: erythropoiesis-stimulating agent,Association with VTE,[6],significantly associated with VTE
heparin,"Patients with immunologic reaction resulting in heparin-induced thrombocytopenia (HIT), average",[7],5%
